# In patent US6399577B1, “Compositions and methods using myelin-associated glycoprotein (MAG) and inhibitors thereof” (Research Foundation of CUNY, Hunter College, priority 1995, dated 2002):
# T1: MAG (Rattus norvegicus, UniProt P07722)
# T1 construct: host or cells: dhfr-deficient CHO cells (CHO-MAG2)
# T1 sequence (P07722 20-626): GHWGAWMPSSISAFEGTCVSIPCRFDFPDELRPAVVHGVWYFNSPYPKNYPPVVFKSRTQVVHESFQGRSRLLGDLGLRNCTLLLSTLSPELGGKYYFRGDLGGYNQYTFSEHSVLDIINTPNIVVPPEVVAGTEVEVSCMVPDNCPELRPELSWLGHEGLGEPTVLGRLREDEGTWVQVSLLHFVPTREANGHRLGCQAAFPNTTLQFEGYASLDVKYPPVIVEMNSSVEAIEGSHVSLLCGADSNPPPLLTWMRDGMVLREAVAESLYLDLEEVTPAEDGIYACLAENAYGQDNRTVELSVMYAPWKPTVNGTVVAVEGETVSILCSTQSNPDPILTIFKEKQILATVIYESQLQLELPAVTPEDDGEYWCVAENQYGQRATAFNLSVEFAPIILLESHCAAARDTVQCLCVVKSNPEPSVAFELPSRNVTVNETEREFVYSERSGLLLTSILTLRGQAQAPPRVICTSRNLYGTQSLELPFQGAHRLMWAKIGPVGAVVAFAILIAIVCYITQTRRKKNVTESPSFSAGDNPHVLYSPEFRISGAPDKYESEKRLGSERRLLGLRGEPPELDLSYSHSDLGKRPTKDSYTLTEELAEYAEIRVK
# T2: MAG (Rattus norvegicus, UniProt P07722)
# T2 construct: consisting of the extracellular domain of MAG fused to the Fc region of IgG (MAG-Fc); host or cells: COS cells
# T2 sequence (P07722 20-516 limits assumed): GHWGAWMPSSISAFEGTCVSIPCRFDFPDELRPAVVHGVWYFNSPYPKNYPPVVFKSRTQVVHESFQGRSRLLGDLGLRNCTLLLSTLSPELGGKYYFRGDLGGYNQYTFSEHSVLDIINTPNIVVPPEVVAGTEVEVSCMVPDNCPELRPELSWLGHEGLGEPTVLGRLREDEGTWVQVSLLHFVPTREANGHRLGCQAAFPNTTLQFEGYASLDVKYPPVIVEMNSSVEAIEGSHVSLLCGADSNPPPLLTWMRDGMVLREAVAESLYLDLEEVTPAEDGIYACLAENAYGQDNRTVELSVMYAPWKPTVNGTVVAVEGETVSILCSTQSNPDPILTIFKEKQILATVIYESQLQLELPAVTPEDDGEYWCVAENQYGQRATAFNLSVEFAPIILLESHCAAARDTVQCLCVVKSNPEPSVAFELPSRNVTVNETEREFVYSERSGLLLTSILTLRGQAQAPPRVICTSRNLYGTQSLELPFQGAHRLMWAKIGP
# What was measured:
# MAG [1] = molecular target: T1, MAG; assay: Neurite outgrowth of DRG neurons on MAG-expressing and control CHO cells: reversal of promotion by MAG; format: cell-based; settings: for % Reversal of Promotion: PND 2 DRG neurons; for effect on the promotion of neurite outgrowth by MAG: increasing concentrations of sugar, text summary of TABLE 2
# Protocol: (§1) Confluent monolayers of control and MAG-expressing CHO cells were established over a 24-hour (h) period in individual chambers of an 8-well tissue culture slide (Lab-Tek). […] Culture medium was SATO containing 2% FCS. Where indicated, 20 mU of VCS was included throughout the coculture period (see Example 4), or monolayers were incubated with small oligosaccharides for one hour before adding the neuronal cell suspension and included throughout the coculture period. After periods of time as indicated, the cocultures were fixed for 30 min with 4% paraformaldehyde and permeabilized with ice-cold methanol for 2 min. The cells were then blocked for 30 min with DMEM containing 10% FCS and incubated for 2 h with a rabbit polyclonal antibody against the neuronal marker GAP43 (1:4000). Cells were washed three times with PBS-BSA (2%) and then incubated for 30 min at room temperature with a biotinylated donkey anti-rabbit Ig (1:300, Amersham), washed three times, and incubated with streptavidin-conjugated Texas Red (1:300, Amersham) for 30 min. After three more washes, the slides were mounted in Permfluor (Baxter) and viewed with a Zeiss fluorescent microscope. The length of the longest neurite for each GAP43-positive neuron was determined using the Biological Detection System image analysis program (Pittsburgh).
# The transfected CHO cell assay described in Example 2 may also be used to screen and identify agents that alter neurite growth properties of a particular neuronal cell type and age in a MAG-dependent fashion. Neurite outgrowth was compared for cerebellar (TABLE 1) and DRG (TABLE 2) neurons from PND 2 animals, grown on MAG-expressing and control CHO cells as described in Example 2. Where indicated, small sialic acid-bearing sugars were included in the co-cultures at increasing concentrations. 100% inhibition was taken as the difference in length of neurites on control and MAG-expressing CHO cells. Results are the mean of at least two experiments, with at least 150 neurons measured for each experiment. DD-NANA=2,3-dideoxy sialic acid; SL=sialo 2,3-α lactose.
# Single cell suspensions of different neurons at various postnatal ages were washed and resuspended in phosphate-buffered saline (PBS). Approximately 2×10^6 cells were incubated with 50 mU of Vibrio cholera sialidase (VCS, Calbiochem) (a neuraminidase) in a final volume of 0.5 ml for 2 hours at 37° C. Neurons were washed with PBS and resuspended in SATO medium containing 2% FCS for neurite outgrowth experiments, or in PBS for neurite binding assays.
# MAG [2] = molecular target: T2, MAG; assay: Radiolabelled MAG-Fc binding to cerebellar neurons; settings: PND1 cerebellar neurons; antibody 5 μg/ml or sialidase treatment of neurons before binding
# Protocol: FIG. 4. sialic acid-dependent Binding of MAG to Cerebellar and DRG Neurons. Radiolabelled MAG-Fc (solid bars) was allowed to bind to PND 1 cerebellar and DRG neurons. Incubations were also carried out in the presence of 5 μg/ml of MAG 513 monoclonal antibody (dark hatched bars) or with neurons that had been desialyated (speckled bars). Each experiment was carried out in quadruplicate. The results are the mean of 3 experiments.
# MAG binds to all types of neurons tested in a sialic acid-dependent fashion (Kelm et al., Curr. Biol., 4, pp. 965-72 (1994)). […] Sialidase is an enzyme which removes sialic acid from glycoconjugates.
# cerebellar neurons [3] = assay: Neurite outgrowth of cerebellar neurons on MAG-expressing versus control CHO cells; format: cell-based, rat; settings: all ages tested, four MAG-expressing CHO cell lines
# Protocol: FIG. 1. Inhibition of Neurite outgrowth from Cerebellar Neurons by MAG. Cerebellar neurons from post-natal day (PND) 1, 4 and 7 were grown overnight on a monolayer of MAG-expressing (clear bars) or control transfected CHO cells (hatched bars). Neurons were stained for GAP-43 antigen and neurite length was measured and the average […] length calculated from at least 150 measurements (+/−SEM).
# as §1, with “Cells were washed three times with PBS-BSA (2%) and then incubated for 30 min at room temperature with a biotinylated donkey anti-rabbit Ig (1:300, Amersham), washed three times, and incubated with streptavidin-conjugated Texas Red (1:300, Amersham) for 30 min. After three more washes, the slides were mounted in Permfluor (Baxter) and viewed with a Zeiss fluorescent microscope.” left out
# DRG neurons = assay: Neurite outgrowth of DRG neurons on MAG-expressing versus control CHO cells; format: cell-based, rat
# Protocol: FIG. 2. Effect of MAG on Neurite Outgrowth from DRG Neurons of Different Ages. […] 1.
# as §1
# [4] = system: retinal ganglion (RG), hippocampal (HN), motor neurons (MN) and superior-cervical ganglion (SCG); assay: Neurite outgrowth of different neuronal cell types on MAG-expressing versus control CHO cells; format: cell-based, rat; settings: neurons from one-day old rats (PND1)
# Protocol: FIG. 3. Effect of MAG on Neurite Outgrowth from Different Neuronal Cell Types. Various neurons from PND1 animals were isolated and grown overnight on MAG-expressing (dark hatched) or control (light hatched) CHO cells. Average neurite length was calculated as described in FIG. 1.
# as §1, with “Cells were washed three times with PBS-BSA (2%) and then incubated for 30 min at room temperature with a biotinylated donkey anti-rabbit Ig (1:300, Amersham), washed three times, and incubated with streptavidin-conjugated Texas Red (1:300, Amersham) for 30 min. After three more washes, the slides were mounted in Permfluor (Baxter) and viewed with a Zeiss fluorescent microscope.” left out
# cerebellar neurons [5] = settings: Mukhopadhyay et al.; cited from earlier work
# [6] = 1 mM sugar, MAG-expressing CHO cells
molecule,measurement,setting,value
"CC(=O)N[C@H]1[C@H]([C@H](O)[C@H](O)CO)OC(C(=O)O)=C[C@@H]1O [DD NANA, 2,3-dideoxy sialic acid]",% Reversal of Promotion,MAG [1]; [6],0%
same,% Reversal of Promotion,"MAG [1]; 10 mM sugar, MAG-expressing CHO cells",51%
same,% Reversal of Promotion,"MAG [1]; 20 mM sugar, MAG-expressing CHO cells",97%
same,% Reversal of Promotion,"MAG [1]; 20 mM sugar, control CHO cells",0%
same,effect on the promotion of neurite outgrowth by MAG,MAG [1],abolished the promotion of neurite outgrowth by MAG completely
"CC(=O)N[C@H]1[C@H]([C@H](O)[C@H](O)CO)O[C@@](O[C@H]2[C@@H](O)[C@@H](CO)O[C@@H](O[C@H]3[C@H](O)[C@@H](O)C(O)O[C@@H]3CO)[C@@H]2O)(C(=O)O)C[C@@H]1O (stereo partly drawn) [SL, sialo 2,3-α lactose]",% Reversal of Promotion,MAG [1]; [6],0%
same,% Reversal of Promotion,"MAG [1]; 5 mM sugar, MAG-expressing CHO cells",96%
same,% Reversal of Promotion,"MAG [1]; 18 mM sugar, MAG-expressing CHO cells",98%
same,% Reversal of Promotion,"MAG [1]; 18 mM sugar, control CHO cells",0%
same,effect on the promotion of neurite outgrowth by MAG,MAG [1],abolished the promotion of neurite outgrowth by MAG completely
"sialidase: Vibrio cholera sialidase (a neuraminidase), enzyme which removes sialic acid from glycoconjugates",effect on promotion of axonal outgrowth by MAG,MAG [1]; newborn (PND1) DRG neurons desialyated with sialidase,completely abolished
same,effect on binding of MAG to cerebellar neurons,MAG [2],abolished
"MAG: myelin-associated glycoprotein expressed on the surface of transfected CHO cells (protein, UniProt P07722 20-626, looked up) Myelin-associated glycoprotein: GHWGAWMPSSISAFEGTCVSIPCRFDFPDELRPAVVHGVWYFNSPYPKNYPPVVFKSRTQVVHESFQGRSRLLGDLGLRNCTLLLSTLSPELGGKYYFRGDLGGYNQYTFSEHSVLDIINTPNIVVPPEVVAGTEVEVSCMVPDNCPELRPELSWLGHEGLGEPTVLGRLREDEGTWVQVSLLHFVPTREANGHRLGCQAAFPNTTLQFEGYASLDVKYPPVIVEMNSSVEAIEGSHVSLLCGADSNPPPLLTWMRDGMVLREAVAESLYLDLEEVTPAEDGIYACLAENAYGQDNRTVELSVMYAPWKPTVNGTVVAVEGETVSILCSTQSNPDPILTIFKEKQILATVIYESQLQLELPAVTPEDDGEYWCVAENQYGQRATAFNLSVEFAPIILLESHCAAARDTVQCLCVVKSNPEPSVAFELPSRNVTVNETEREFVYSERSGLLLTSILTLRGQAQAPPRVICTSRNLYGTQSLELPFQGAHRLMWAKIGPVGAVVAFAILIAIVCYITQTRRKKNVTESPSFSAGDNPHVLYSPEFRISGAPDKYESEKRLGSERRLLGLRGEPPELDLSYSHSDLGKRPTKDSYTLTEELAEYAEIRVK",inhibition of neurite outgrowth compared to control cells,cerebellar neurons [3],at least 70%
same,inhibition of neurite outgrowth,DRG neurons; DRG neurons from adult rats,about 40%
same,neurite length on MAG-expressing cells compared to control cells,DRG neurons; DRG neurons from two-day old rats,almost twice as long
same,effect on neurite growth,[4],potent inhibitor of neurite growth in all cell types tested
"Po: another myelin protein expressed by CHO cells, specificity control (protein, UniProt P25189 30-248, looked up) Myelin protein P0: IVVYTDREVHGAVGSRVTLHCSFWSSEWVSDDISFTWRYQPEGGRDAISIFHYAKGQPYIDEVGTFKERIQWVGDPRWKDGSIVIHNLDYSDNGTFTCDVKNPPDIVGKTSQVTLYVFEKVPTRYGVVLGAVIGGVLGVVLLLLLLFYVVRYCWLRRQAALQRRLSAMEKGKLHKPGKDASKRGRQTPVLYAMLDHSRSTKAVSEKKAKGLGESRKDKK",effect on neurite outgrowth of CHO cells expressing the protein,cerebellar neurons [5],lack of effect
